# Literature values, collected in patent US6627153B1, “Integrated assay for organ function, drugs and/or one or more metabolites” (priority 1999, dated 2003).
# Conditions: following oral administration; within the first 24 hours
smiles,measurement,value
CN(C)C(=N)N=C(N)N [Metformin],absorbed drug eliminated via the renal route,90%
